Test results from PubChem BioAssay AID328 (DTP/NCI, 2004).
Values joined by “and” are separate entries in the source; they are usually repeats but may differ in a detail not shown here. Identical values can stand only once. Inconclusive results and toxic doses are left out.

Test system: BDF1 mice, P388 leukemia ip, median survival T/C
Assay: NCI In Vivo Anticancer Drug Screen. Data for tumor model P388 Leukemia (intraperitoneal) in B6D2F1 (BDF1) mice
Details: endpoint: median survival time, higher = longer survival
Method in brief: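 T/C = treated-group survival ÷ vehicle-control survival; tumour transplanted into mice before dosing.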

With `COC(C(=O)C(O)C(C)O)C1Cc2cc3cc(OC4CC(OC(C)=O)C(OC5CC(O)C(OC)C(C)O5)C(C)O4)cc(O)c3c(O)c2C(=O)C1OC1CC(OC2CC(OC3CC(C)(O)C(OC(=O)C(C)C)C(C)O3)C(O)C(C)O2)C(O)C(C)O1` (stereo unspecified) the T/C (dose: 0.05 mg/kg/injection, schedule: Q01DX010 (ip), vehicle: saline) was 113 % of control, the T/C (dose: 0.1 mg/kg/injection, schedule: Q01DX010 (ip), vehicle: saline) was 90 % of control and the T/C (dose: 0.2 mg/kg/injection, schedule: Q01DX010 (ip), vehicle: saline) was 154 % of control. The T/C (dose: 0.25 mg/kg/injection, schedule: Q01DX009 (ip), vehicle: other) was 150 % of control, the T/C (dose: 0.25 mg/kg/injection, schedule: Q01DX009 (ip), vehicle: saline) was 111 % of control and the T/C (dose: 0.25 mg/kg/injection, schedule: Q01DX010 (ip), vehicle: saline) was 154 % of control and 172 % of control. The T/C (dose: 0.36 mg/kg/injection, schedule: Q01DX005 (ip), vehicle: carboxymethylcellulose (CMC)) was 155 % of control, the T/C (dose: 0.37 mg/kg/injection, schedule: Q01DX009 (ip), vehicle: carboxymethylcellulose (CMC)) was 155 % of control and the T/C (dose: 0.37 mg/kg/injection, schedule: Q01DX009 (sc), vehicle: carboxymethylcellulose (CMC)) was 100 % of control. For the same compound, the T/C (dose: 0.38 mg/kg/injection, schedule: Q01DX010 (ip), vehicle: saline) was 177 % of control, the T/C (dose: 0.4 mg/kg/injection, schedule: Q01DX010 (ip), vehicle: saline) was 157 % of control and 172 % of control and the T/C (dose: 0.5 mg/kg/injection, schedule: Q01DX001 (ip), vehicle: other) was 104 % of control. For the same compound, the T/C (dose: 0.5 mg/kg/injection, schedule: Q01DX009 (ip), vehicle: other) was 162 % of control, the T/C (dose: 0.5 mg/kg/injection, schedule: Q01DX009 (ip), vehicle: saline) was 94 % of control and 100 % of control and the T/C (dose: 0.5 mg/kg/injection, schedule: Q01DX010 (ip), vehicle: saline) was 190 % of control and 213 % of control. For the same compound, the T/C (dose: 0.75 mg/kg/injection, schedule: Q01DX005 (ip), vehicle: carboxymethylcellulose (CMC)) was 165 % of control, the T/C (dose: 0.75 mg/kg/injection, schedule: Q01DX009 (ip), vehicle: carboxymethylcellulose (CMC)) was 190 % of control and the T/C (dose: 0.75 mg/kg/injection, schedule: Q01DX009 (sc), vehicle: carboxymethylcellulose (CMC)) was 100 % of control. For the same compound, the T/C (dose: 0.75 mg/kg/injection, schedule: Q01DX010 (ip), vehicle: saline) was 218 % of control, the T/C (dose: 1.0 mg/kg/injection, schedule: Q01DX001 (ip), vehicle: other) was 108 % of control and the T/C (dose: 1.0 mg/kg/injection, schedule: Q01DX001 (sc), vehicle: carboxymethylcellulose (CMC)) was 100 % of control. For the same compound, the T/C (dose: 1.0 mg/kg/injection, schedule: Q01DX009 (ip), vehicle: other) was 179 % of control, the T/C (dose: 1.0 mg/kg/injection, schedule: Q01DX009 (ip), vehicle: saline) was 111 % of control and 100 % of control and the T/C (dose: 1.0 mg/kg/injection, schedule: Q01DX010 (ip), vehicle: saline) was 240 % of control and 227 % of control and 195 % of control. The T/C (dose: 1.0 mg/kg/injection, schedule: Q## X003 (ip), vehicle: carboxymethylcellulose (CMC)) was 165 % of control, the T/C (dose: 1.0 mg/kg/injection, schedule: Q## X008 (ip), vehicle: carboxymethylcellulose (CMC)) was 155 % of control and the T/C (dose: 1.0 mg/kg/injection, schedule: Q## X024 (ip), vehicle: carboxymethylcellulose (CMC)) was 110 % of control. For the same compound, the T/C (dose: 1.5 mg/kg/injection, schedule: Q01DX005 (ip), vehicle: carboxymethylcellulose (CMC)) was 215 % of control, the T/C (dose: 1.5 mg/kg/injection, schedule: Q01DX009 (ip), vehicle: carboxymethylcellulose (CMC)) was 235 % of control and the T/C (dose: 1.5 mg/kg/injection, schedule: Q01DX009 (oral), vehicle: carboxymethylcellulose (CMC)) was 100 % of control. The T/C (dose: 1.5 mg/kg/injection, schedule: Q01DX009 (sc), vehicle: carboxymethylcellulose (CMC)) was 104 % of control, the T/C (dose: 1.5 mg/kg/injection, schedule: Q01DX010 (ip), vehicle: saline) was 195 % of control and 218 % of control and the T/C (dose: 1.6 mg/kg/injection, schedule: Q01DX010 (ip), vehicle: saline) was 161 % of control. For the same compound, the T/C (dose: 2.0 mg/kg/injection, schedule: Q01DX001 (ip), vehicle: other) was 116 % of control, the T/C (dose: 2.0 mg/kg/injection, schedule: Q01DX001 (ip), vehicle: saline) was 116 % of control and the T/C (dose: 2.0 mg/kg/injection, schedule: Q01DX001 (sc), vehicle: carboxymethylcellulose (CMC)) was 100 % of control. The T/C (dose: 2.0 mg/kg/injection, schedule: Q01DX009 (ip), vehicle: saline) was 111 % of control, the T/C (dose: 2.0 mg/kg/injection, schedule: Q01DX010 (ip), vehicle: saline) was 227 % of control and the T/C (dose: 2.0 mg/kg/injection, schedule: Q## X003 (ip), vehicle: carboxymethylcellulose (CMC)) was 150 % of control. The T/C (dose: 2.0 mg/kg/injection, schedule: Q## X024 (ip), vehicle: carboxymethylcellulose (CMC)) was 90 % of control, the T/C (dose: 3.0 mg/kg/injection, schedule: Q01DX005 (ip), vehicle: carboxymethylcellulose (CMC)) was 260 % of control and the T/C (dose: 3.0 mg/kg/injection, schedule: Q01DX009 (ip), vehicle: carboxymethylcellulose (CMC)) was 95 % of control. The T/C (dose: 3.0 mg/kg/injection, schedule: Q01DX009 (oral), vehicle: carboxymethylcellulose (CMC)) was 90 % of control, the T/C (dose: 3.0 mg/kg/injection, schedule: Q01DX009 (sc), vehicle: carboxymethylcellulose (CMC)) was 100 % of control and the T/C (dose: 3.2 mg/kg/injection, schedule: Q01DX010 (ip), vehicle: saline) was 114 % of control. The T/C (dose: 4.0 mg/kg/injection, schedule: Q01DX001 (ip), vehicle: carboxymethylcellulose (CMC)) was 120 % of control, the T/C (dose: 4.0 mg/kg/injection, schedule: Q01DX001 (ip), vehicle: other) was 116 % of control and the T/C (dose: 4.0 mg/kg/injection, schedule: Q01DX001 (oral), vehicle: carboxymethylcellulose (CMC)) was 90 % of control. The T/C (dose: 4.0 mg/kg/injection, schedule: Q01DX001 (sc), vehicle: carboxymethylcellulose (CMC)) was 100 % of control, the T/C (dose: 4.0 mg/kg/injection, schedule: Q01DX009 (ip), vehicle: other) was 208 % of control and the T/C (dose: 4.0 mg/kg/injection, schedule: Q## X008 (ip), vehicle: carboxymethylcellulose (CMC)) was 155 % of control. For the same compound, the T/C (dose: 4.0 mg/kg/injection, schedule: Q## X024 (ip), vehicle: carboxymethylcellulose (CMC)) was 100 % of control, the T/C (dose: 6.0 mg/kg/injection, schedule: Q01DX009 (oral), vehicle: carboxymethylcellulose (CMC)) was 90 % of control and the T/C (dose: 8.0 mg/kg/injection, schedule: Q01DX001 (oral), vehicle: carboxymethylcellulose (CMC)) was 90 % of control. The T/C (dose: 8.0 mg/kg/injection, schedule: Q01DX001 (sc), vehicle: carboxymethylcellulose (CMC)) was 109 % of control, the T/C (dose: 12.0 mg/kg/injection, schedule: Q01DX009 (oral), vehicle: carboxymethylcellulose (CMC)) was 100 % of control and the T/C (dose: 16.0 mg/kg/injection, schedule: Q01DX001 (oral), vehicle: carboxymethylcellulose (CMC)) was 100 % of control. The T/C (dose: 32.0 mg/kg/injection, schedule: Q01DX001 (oral), vehicle: carboxymethylcellulose (CMC)) was 90 % of control, the T/C (dose: 25.0 micrograms/kg/injection, schedule: Q01DX010 (ip), vehicle: saline) was 100 % of control and the T/C (dose: 50.0 micrograms/kg/injection, schedule: Q01DX010 (ip), vehicle: saline) was 122 % of control. For the same compound, the T/C (dose: 62.5 micrograms/kg/injection, schedule: Q01DX010 (ip), vehicle: saline) was 109 % of control, the T/C (dose: 125.0 micrograms/kg/injection, schedule: Q01DX010 (ip), vehicle: saline) was 109 % of control and the T/C (dose: 200.0 micrograms/kg/injection, schedule: Q01DX010 (ip), vehicle: saline) was 154 % of control. For the same compound, the T/C (dose: 400.0 micrograms/kg/injection, schedule: Q01DX010 (ip), vehicle: saline) was 154 % of control, the T/C (dose: 500.0 micrograms/kg/injection, schedule: Q01DX010 (ip), vehicle: saline) was 209 % of control and the T/C (dose: 800.0 micrograms/kg/injection, schedule: Q01DX010 (ip), vehicle: saline) was 181 % of control.
